Experimental data from patent US20190091168A1, “FORMULATION FOR ENHANCED TRANSDERMAL ABSORPTION OF DRUG” (UNIST(ULSAN NATIONAL INSTITUTE OF SCIENCE AND TECHNOLOGY), priority 2017, published 2019).

Tests used:
Type in all cases: in vivo
SOX-2 = SOX-2 expression in skin tissue after oral administration (fluorescence imaging); settings: 100 μg/Kg/0.1 ml twice a week, 2 months, APP/PS/Tau mouse
Protocol: (§1) Accordingly, the present inventors examined whether expressions of hair growth stimulating factors, SOX-2 and SOX-9 were increased in hair loss animal models by the benzene diamine derivatives of the present disclosure. In order to examine SOX-2 and SOX-9 expressions inside skin tissues, APP/PS/Tau mouse which is a hair loss-induced mouse model was selected as a control group and C57BL6 mouse was selected as a normal group, as in Example 5. An experimental group was prepared by orally administering the control group with the benzene diamine derivative at a concentration of 100 μg/Kg/0.1 ml using a zonde twice a week. 2 months later, incision of the skin was performed under local anesthesia, and the skin tissues were fixed in 4% paraformaldehyde solution for 24 hours, and fixed in a plastic mold with O.C.T. Compound (SAKURA, USA) for cryostat sectioning. […] Thereafter, the plate was put on a slide glass and covered with a cover slide, and stored in a dark acrylic box, and fluorescence imaging was observed under a confocal microscope (LSM710, Carl Zeiss, Germany) by 405/488/565 nm laser. […]

[1] = system: dementia mouse model APP/PS/Tau; test: Morris water maze test in dementia mouse model; settings: for mean escape latency: 100 μg/kg twice a week for 2 months
Description: (§2) APP/PS/Tau was purchased as a dementia mouse model from Jackson lab (BAR HARBOR, USA), and APP/Tau female and APP/PSen1de9 purchased from Taconic (Hudson, USA) were cross-mated for 6 generations, and 4-month-old mouse models were obtained from F1.
In order to examine therapeutic effects of the benzene diamine derivative of the present disclosure on dementia, enhancement of spatial cognition and memory in dementia mouse models were investigated. For this investigation, a Morris water maze (Harvard Apparatus, USA) test was performed.
In detail, a water maze composed of a stainless steel pool with a diameter of 150 cm×a height of 60 cm and an escape platform (10 cm in diameter, 30 cm in height) was filled with water at […], and the height was 2 cm above the platform such that when a mouse sat on the escape platform, the body was allowed to come out of the water. […] Escape latency was measured as the time taken for the experimental animal to go to the escape platform when the experimental animal went to the escape platform and stayed thereon for more than 20 seconds. This test was performed three times a day, and a mean value was determined as mean escape latency. The escape latency was recorded on the computer program (Smart Video Tracking System V3.0, PanLab SL, Barcelona, Spain) by installing a camera on the ceiling above the water tank. The experiment was performed three times a day for 6 days, and at this time, the possibility of accidentally visiting the escape platform was minimized by sequentially changing the positions of the experimental animals in the water tank. In the experiment, a normal mouse, a control dementia mouse administered with a vehicle (PBS) and an experimental dementia mouse administered with 100 μg/kg of N^1-(pyridin-2-ylmethyl)benzene-1,4-diamine (Compound 2) twice a week for 2 months were used after completing administration.

SOX-9 = SOX-9 expression in skin tissue after oral administration (fluorescence imaging); settings: 100 μg/Kg/0.1 ml twice a week, 2 months, APP/PS/Tau mouse
Protocol: as §1

[2] = system: hair loss mouse model APP/PS/Tau; test: Hair loss mouse model, oral administration, changes in appearance; settings: 100 μg/Kg twice a week for 2 months
Description: as §2
In order to examine therapeutic effects of the benzene diamine derivative of the present disclosure on hair loss, the benzene diamine derivative was orally administered to hair loss-induced mouse models, and changes in appearance were examined. The animal model of Experimental Example 2-1 was characterized by appearance of hair loss as well as dementia symptoms. Therefore, the animal model of Experimental Example 2-1 was used as a hair loss mouse model.
The hair loss mouse models were divided into groups of 6 mice, and among the hair loss mouse models, the control group were orally administered with a phosphate buffer vehicle (PBS) for 2 months, and the experimental group was orally administered with 100 μl of N1-(pyridin-2-ylmethyl)benzene-1,4-diamine (Compound 2) at a concentration of 100 μg/Kg twice a week for 2 months. Thereafter, changes in their appearance were compared.

monomer/oligomer Aβ = test: Monomer/oligomer Aβ expression in skin tissue after oral administration (fluorescence imaging); settings: 100 μg/Kg/0.1 ml twice a week, 2 months, APP/PS/Tau mouse

“N^1-(pyridin-2-ylmethyl)benzene-1,4-diamine [Compound 2]” was tested. Which “SOX-2 expression in skin” value (SOX-2) did it give?
Its value is “remarkably expressed close to the normal group”.

What about the mean escape latency ([1]; at 3 days, compared with dementia control group) of the same substance?
The mean escape latency was “significantly short mean escape latency”.

And the “difference of mean escape latency, control group vs experimental group” value ([1]; at 4 days)?
Its value is 16 s.

What about the mean escape latency ([1]; at 4 days) of the same substance?
Its mean escape latency is 26 ± 1 s.

What about the “difference of mean escape latency, dementia group vs treated group” value ([1]; at 5 days) of the same substance?
The value was 19 s.

What about the mean escape latency ([1]; at 5 days) of the same substance?
The mean escape latency was 24 ± 1 s.

What about the “SOX-9 expression in skin” value (SOX-9) of the same substance?
Its value is “remarkably increased”.

And the “changes in appearance (hair loss)” value [2]?
The value was “remarkable improvement in hair loss”.

What about the “monomer/oligomer Aβ expression in skin” value (monomer/oligomer Aβ) of the same substance?
The value was “decreased”.
